Tests used:
[1] = Permeability of the compound at 25 ug/ml after 18 hrs by PAMPA-BBB assay; type: ADME; settings: read-out: permeability
Acetylcholinesterase [2] = molecular target: T1, Acetylcholinesterase (Electrophorus electricus, UniProt O42275); experiment: Inhibition of electric eel AChE using acetylthiocholine iodide as substrate preincubated for 30 mins followed by substrate addition and measured for 20 mins at 1 min interval by Ellman's method
Cholinesterase = Cholinesterase (Equus caballus, UniProt P81908); experiment: Inhibition of equine serum BuChE using butyrylthiocholine iodide as substrate preincubated for 30 mins followed by substrate addition and measured for 20 mins at 1 min interval by Ellman's method
[3] = molecular target: T2, 72 kDa type IV collagenase (Homo sapiens, UniProt P08253); experiment: Inhibition of human MMP2 using Mca-Pro-Leu-Gly-Leu-Dpa-Ala-Arg-NH as substrate preincubated for 60 mins followed by substrate addition by fluorescence analysis
[4] = Toxicity in Wistar rat measured for 72 hrs; type: organism-based; settings: in vivo
Mus musculus = experiment: Effect on locomotive behavior in Swiss albino mouse at 5 to 20 mg/kg, ip administered once daily for 7 days prior to 4 hrs of training and measured after 5 mins by Y-maze test; type: ADME, organism-based; settings: in vivo
Rattus norvegicus = experiment: Toxicity in Wistar rat assessed as mortality at 300 mg/kg measured for 72 hrs; type: organism-based; settings: in vivo
Acetylcholinesterase [5] = molecular target: T1, Acetylcholinesterase; experiment: Non-competitive inhibition of electric eel AChE using acetylthiocholine iodide as substrate preincubated for 30 mins followed by substrate addition by Dixon plot analysis
[6] = Neuroprotective activity against tetracycline removal-induced cytotoxicity in human MC65 cells assessed as cell viability at 70 uM after 12 hrs by MTT assay relative to control; type: functional; settings: MC65, 12 h, read-out: Activity
[7] = molecular target: T2, 72 kDa type IV collagenase; experiment: Competitive inhibition of human MMP2 using Mca-Pro-Leu-Gly-Leu-Dpa-Ala-Arg-NH as substrate preincubated for 60 mins followed by substrate addition by secondary plot analysis

T1 sequence (O42275 whole entry): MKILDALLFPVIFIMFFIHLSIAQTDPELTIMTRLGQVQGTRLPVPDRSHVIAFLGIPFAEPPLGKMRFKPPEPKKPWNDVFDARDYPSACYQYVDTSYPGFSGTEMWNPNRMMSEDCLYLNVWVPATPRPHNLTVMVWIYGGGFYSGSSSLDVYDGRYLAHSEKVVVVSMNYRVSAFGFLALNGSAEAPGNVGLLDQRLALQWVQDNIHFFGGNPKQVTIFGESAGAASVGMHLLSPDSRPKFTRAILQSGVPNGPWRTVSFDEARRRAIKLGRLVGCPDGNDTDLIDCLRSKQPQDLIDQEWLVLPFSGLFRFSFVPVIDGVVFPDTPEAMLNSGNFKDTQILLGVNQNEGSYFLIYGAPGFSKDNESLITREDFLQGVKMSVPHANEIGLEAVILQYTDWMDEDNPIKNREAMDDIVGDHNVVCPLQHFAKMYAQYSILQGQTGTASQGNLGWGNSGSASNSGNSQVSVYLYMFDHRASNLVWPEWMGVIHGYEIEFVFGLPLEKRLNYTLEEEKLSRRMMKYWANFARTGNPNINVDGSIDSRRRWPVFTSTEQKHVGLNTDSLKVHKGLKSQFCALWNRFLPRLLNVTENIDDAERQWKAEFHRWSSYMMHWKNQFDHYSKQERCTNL
T2 sequence (P08253 whole entry): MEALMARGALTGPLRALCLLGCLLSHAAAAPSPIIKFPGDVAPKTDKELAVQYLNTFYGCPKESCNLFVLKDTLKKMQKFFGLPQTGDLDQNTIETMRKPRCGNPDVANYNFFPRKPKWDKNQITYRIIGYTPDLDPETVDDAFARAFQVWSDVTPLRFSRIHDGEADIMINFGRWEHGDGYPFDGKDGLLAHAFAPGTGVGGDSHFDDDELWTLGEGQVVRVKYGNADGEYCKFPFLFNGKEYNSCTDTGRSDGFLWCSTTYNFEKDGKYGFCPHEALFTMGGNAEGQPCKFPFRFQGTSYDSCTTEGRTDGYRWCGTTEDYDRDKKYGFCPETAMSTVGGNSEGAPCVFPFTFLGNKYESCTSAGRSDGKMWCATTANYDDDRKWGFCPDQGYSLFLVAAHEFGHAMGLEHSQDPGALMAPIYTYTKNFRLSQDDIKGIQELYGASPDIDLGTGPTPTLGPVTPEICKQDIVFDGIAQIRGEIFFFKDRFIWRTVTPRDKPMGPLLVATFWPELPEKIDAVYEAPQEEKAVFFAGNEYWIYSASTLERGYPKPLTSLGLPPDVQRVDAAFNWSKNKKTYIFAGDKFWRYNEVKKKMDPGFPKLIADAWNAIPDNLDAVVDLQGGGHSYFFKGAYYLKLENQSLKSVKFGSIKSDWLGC
Sequence of Cholinesterase (P81908 whole entry): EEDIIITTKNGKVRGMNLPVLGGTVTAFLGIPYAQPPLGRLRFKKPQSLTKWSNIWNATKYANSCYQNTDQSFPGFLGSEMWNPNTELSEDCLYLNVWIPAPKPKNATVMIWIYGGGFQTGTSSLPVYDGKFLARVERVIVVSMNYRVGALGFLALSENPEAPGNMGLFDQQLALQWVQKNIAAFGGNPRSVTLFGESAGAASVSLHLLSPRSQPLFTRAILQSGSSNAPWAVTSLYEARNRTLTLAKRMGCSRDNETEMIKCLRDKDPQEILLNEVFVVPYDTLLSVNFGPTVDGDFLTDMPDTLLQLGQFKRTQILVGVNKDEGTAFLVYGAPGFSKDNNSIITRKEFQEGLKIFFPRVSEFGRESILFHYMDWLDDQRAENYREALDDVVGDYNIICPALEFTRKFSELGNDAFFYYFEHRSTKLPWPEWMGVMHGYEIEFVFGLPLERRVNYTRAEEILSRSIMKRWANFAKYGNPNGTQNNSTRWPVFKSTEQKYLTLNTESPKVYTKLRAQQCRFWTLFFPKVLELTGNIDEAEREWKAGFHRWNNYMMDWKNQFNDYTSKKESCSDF

SMILES | Papp at 18 h, 25 ug/ml [1] | IC50 (Acetylcholinesterase [2]) | IC50 (Cholinesterase) | IC50 [3] | LD50 at 72 h [4] | Activity (Mus musculus) | Activity (Rattus norvegicus) | Ki (Acetylcholinesterase [5]) | viability at 70 µM [6] | Ki [7]
O=C1CN(S(=O)(=O)c2ccc(F)cc2)C(=O)CN1S(=O)(=O)c1ccc(F)cc1 | 10.3 ×10⁻⁶ cm/s | 78.3 nM | 186 nM | 55.1 nM | – | – | – | – | – | –
CCCS(=O)(=O)N1CC(=O)N(S(=O)(=O)CCC)CC1=O | 0.89 ×10⁻⁶ cm/s | > 200 nM | > 200 nM | > 1000 nM | – | – | – | – | – | –
O=C1CN(S(=O)(=O)c2ccc(Cl)cc2)C(=O)CN1S(=O)(=O)c1ccc(Cl)cc1 | 6.43 ×10⁻⁶ cm/s | 61.6 nM | 180 nM | 49.7 nM | – | – | – | – | – | –
O=C1C(Cc2ccccc2)N(S(=O)(=O)c2cccc(O)c2)C(=O)C(Cc2ccccc2)N1S(=O)(=O)c1cccc(O)c1 (centres undefined) | 6.36 ×10⁻⁶ cm/s | 69.8 nM | > 200 nM | 83 nM | – | – | – | – | – | –
CCCCS(=O)(=O)N1CC(=O)N(S(=O)(=O)CCCC)CC1=O | 1.06 ×10⁻⁶ cm/s | > 200 nM | > 200 nM | > 1000 nM | – | – | – | – | – | –
O=C1C(Cc2ccccc2)N(S(=O)(=O)c2ccc(Cl)cc2)C(=O)C(Cc2ccccc2)N1S(=O)(=O)c1ccc(Cl)cc1 (centres undefined) | 12.3 ×10⁻⁶ cm/s | 32.5 nM | 158 nM | 36.8 nM | 200 mg/kg | Non-Toxic | Toxic | – | – | –
Cc1ccc(S(=O)(=O)N2C(=O)C(c3ccccc3)N(S(=O)(=O)c3ccc(C)cc3)C(=O)C2c2ccccc2)cc1 (centres undefined) | 11.3 ×10⁻⁶ cm/s | 76.4 nM | > 200 nM | 62.9 nM | – | – | – | – | – | –
COc1ccc(S(=O)(=O)N2CC(=O)N(S(=O)(=O)c3ccc(OC)cc3)CC2=O)cc1 | 6.46 ×10⁻⁶ cm/s | 91.5 nM | > 200 nM | 75.3 nM | – | – | – | – | – | –
O=C1C(c2ccccc2)N(S(=O)(=O)c2ccc(O)cc2)C(=O)C(c2ccccc2)N1S(=O)(=O)c1ccc(O)cc1 (centres undefined) | 6.84 ×10⁻⁶ cm/s | 84.2 nM | > 200 nM | 57.2 nM | – | – | – | – | – | –
O=C1C(Cc2ccccc2)N(S(=O)(=O)c2ccc(O)cc2)C(=O)C(Cc2ccccc2)N1S(=O)(=O)c1ccc(O)cc1 (centres undefined) | 5.68 ×10⁻⁶ cm/s | 59.5 nM | 199 nM | 72 nM | – | – | – | – | – | –
O=C1C(c2ccccc2)N(S(=O)(=O)c2ccc(Cl)cc2)C(=O)C(c2ccccc2)N1S(=O)(=O)c1ccc(Cl)cc1 (centres undefined) | 7.38 ×10⁻⁶ cm/s | 28.6 nM | 161 nM | 19.6 nM | 200 mg/kg | Non-Toxic | Toxic | 7 nM | 99.4% | 20 nM
O=C1C(Cc2ccccc2)N(S(=O)(=O)c2ccc(Br)cc2)C(=O)C(Cc2ccccc2)N1S(=O)(=O)c1ccc(Br)cc1 (centres undefined) | 7.29 ×10⁻⁶ cm/s | 57 nM | 181 nM | 38.7 nM | – | – | – | – | – | –
O=C1CN(S(=O)(=O)c2cccc(Cl)c2)C(=O)CN1S(=O)(=O)c1cccc(Cl)c1 | 8.37 ×10⁻⁶ cm/s | 66.7 nM | 197 nM | 58 nM | – | – | – | – | – | –
O=C1C(Cc2ccccc2)N(S(=O)(=O)c2ccc([N+](=O)[O-])cc2)C(=O)C(Cc2ccccc2)N1S(=O)(=O)c1ccc([N+](=O)[O-])cc1 (centres undefined) | 4.49 ×10⁻⁶ cm/s | 57.4 nM | 163 nM | 53.8 nM | – | – | – | – | – | –
O=C1C(c2ccccc2)N(S(=O)(=O)c2ccc(Br)cc2)C(=O)C(c2ccccc2)N1S(=O)(=O)c1ccc(Br)cc1 (centres undefined) | 8.31 ×10⁻⁶ cm/s | 50.6 nM | 183 nM | 32.7 nM | – | – | – | – | – | –
O=C1C(c2ccccc2)N(S(=O)(=O)c2ccc([N+](=O)[O-])cc2)C(=O)C(c2ccccc2)N1S(=O)(=O)c1ccc([N+](=O)[O-])cc1 (centres undefined) | 4.63 ×10⁻⁶ cm/s | 60.8 nM | 176 nM | 33.5 nM | – | – | – | – | – | –
O=C1CN(S(=O)(=O)c2ccccc2)C(=O)CN1S(=O)(=O)c1ccccc1 | – | 98.5 nM | > 200 nM | 82.2 nM | – | – | – | – | – | –
Nc1ccc(S(=O)(=O)N2CC(=O)N(S(=O)(=O)c3ccc(N)cc3)CC2=O)cc1 | 6.1 ×10⁻⁶ cm/s | 86.3 nM | > 200 nM | 53.1 nM | – | – | – | – | – | –
O=C1C(c2ccccc2)N(S(=O)(=O)c2cccc(Br)c2)C(=O)C(c2ccccc2)N1S(=O)(=O)c1cccc(Br)c1 (centres undefined) | 9.45 ×10⁻⁶ cm/s | 76.6 nM | 193 nM | 54.7 nM | – | – | – | – | – | –
Nc1ccc(S(=O)(=O)N2C(=O)C(c3ccccc3)N(S(=O)(=O)c3ccc(N)cc3)C(=O)C2c2ccccc2)cc1 (centres undefined) | 5.53 ×10⁻⁶ cm/s | 91.3 nM | > 200 nM | 50.6 nM | – | – | – | – | – | –
Cc1ccc(S(=O)(=O)N2CC(=O)N(S(=O)(=O)c3ccc(C)cc3)CC2=O)cc1 | 10.4 ×10⁻⁶ cm/s | 118 nM | > 200 nM | 86.7 nM | – | – | – | – | – | –
O=C1C(Cc2ccccc2)N(S(=O)(=O)c2cccc(Br)c2)C(=O)C(Cc2ccccc2)N1S(=O)(=O)c1cccc(Br)c1 (centres undefined) | 8.06 ×10⁻⁶ cm/s | 76.7 nM | 191 nM | 58.1 nM | – | – | – | – | – | –
O=C1CN(S(=O)(=O)c2ccc(Br)cc2)C(=O)CN1S(=O)(=O)c1ccc(Br)cc1 | 8.87 ×10⁻⁶ cm/s | 81.8 nM | 191 nM | 54.7 nM | – | – | – | – | – | –
Cc1cccc(S(=O)(=O)N2C(=O)C(c3ccccc3)N(S(=O)(=O)c3cccc(C)c3)C(=O)C2c2ccccc2)c1 (centres undefined) | 11.8 ×10⁻⁶ cm/s | 83.9 nM | > 200 nM | 73.8 nM | – | – | – | – | – | –
Cc1nnc2n1-c1ccc(Cl)cc1C(c1ccccc1)=NC2 [ALPRAZOLAM] | 4.6 to 5.4 ×10⁻⁶ cm/s | – | – | – | – | – | – | – | – | –
CN(C)CCCN1c2ccccc2Sc2ccc(Cl)cc21 [CHLORPROMAZINE] | 5.9 to 6.5 ×10⁻⁶ cm/s | – | – | – | – | – | – | – | – | –
NCCc1ccc(O)c(O)c1 [DOPAMINE] | 0.17 to 0.2 ×10⁻⁶ cm/s | – | – | – | – | – | – | – | – | –
CCn1cc(C(=O)O)c(=O)c2cc(F)c(N3CCNC(C)C3)c(F)c21 (centres undefined) [LOMEFLOXACIN] | 0.31 to 1.1 ×10⁻⁶ cm/s | – | – | – | – | – | – | – | – | –
CC(=O)[C@H]1CC[C@H]2[C@@H]3CCC4=CC(=O)CC[C@]4(C)[C@H]3CC[C@]12C [PROGESTERONE] | 9.3 to 15.8 ×10⁻⁶ cm/s | – | – | – | – | – | – | – | – | –
